{
  "source": "ChEMBL document CHEMBL3526092",
  "about": "(Drug Metab Dispos, 2012)",
  "key": {"Cytochrome P450 3A5 [1]": {"molecular_target": "T1, Cytochrome P450 3A5 (Homo sapiens, UniProt P20815)", "T1 sequence (P20815 whole entry)": "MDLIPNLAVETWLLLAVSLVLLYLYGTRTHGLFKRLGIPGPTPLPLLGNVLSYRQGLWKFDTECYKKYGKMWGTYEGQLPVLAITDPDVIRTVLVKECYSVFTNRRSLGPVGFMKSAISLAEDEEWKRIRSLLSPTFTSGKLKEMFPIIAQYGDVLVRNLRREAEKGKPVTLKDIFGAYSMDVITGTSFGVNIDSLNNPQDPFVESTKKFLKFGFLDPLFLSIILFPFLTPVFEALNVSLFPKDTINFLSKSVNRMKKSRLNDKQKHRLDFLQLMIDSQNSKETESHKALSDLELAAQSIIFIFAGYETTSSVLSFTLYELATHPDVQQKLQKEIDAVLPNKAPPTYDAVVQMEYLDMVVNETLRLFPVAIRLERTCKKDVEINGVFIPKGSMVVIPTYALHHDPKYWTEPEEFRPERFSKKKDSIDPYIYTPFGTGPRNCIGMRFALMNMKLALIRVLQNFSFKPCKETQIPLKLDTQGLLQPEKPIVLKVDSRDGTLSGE", "experiment": "Reversible competitive inhibition of human CYP3A5-mediated 1'-OH midazolam formation in human liver microsomes after 7.5 mins by nonlinear regression study", "type": "ADME"}, "CYP3A [2]": {"molecular_target": "T2, CYP3A (Homo sapiens, UniProt P08684+P20815+P24462+Q9HB55)", "experiment": "Inhibition of CYP3A-mediated 1'-OH midazolam formation in human liver microsomes after 7.5 mins by LC-MS method", "type": "ADME", "details": "probe midazolam (1'-OH midazolam formation)"}, "Cytochrome P450 3A5 [3]": {"molecular_target": "T1, Cytochrome P450 3A5", "experiment": "Inhibition of human CYP3A5 expressed in supersomes assessed inhibition of 1'-OH midazolam formation preincubated with compound before substrate addition by LC-MS method", "type": "ADME"}, "CYP3A [4]": {"molecular_target": "T2, CYP3A", "experiment": "Inhibition of CYP3A-mediated 1'-OH midazolam formation in human liver microsomes preincubated for 15 mins before substrate addition by LC-MS method", "type": "ADME", "details": "probe midazolam (1'-OH midazolam formation)"}, "Cytochrome P450 3A4 [5]": {"molecular_target": "T3, Cytochrome P450 3A4 (Homo sapiens, UniProt P08684)", "T3 sequence (P08684 whole entry)": "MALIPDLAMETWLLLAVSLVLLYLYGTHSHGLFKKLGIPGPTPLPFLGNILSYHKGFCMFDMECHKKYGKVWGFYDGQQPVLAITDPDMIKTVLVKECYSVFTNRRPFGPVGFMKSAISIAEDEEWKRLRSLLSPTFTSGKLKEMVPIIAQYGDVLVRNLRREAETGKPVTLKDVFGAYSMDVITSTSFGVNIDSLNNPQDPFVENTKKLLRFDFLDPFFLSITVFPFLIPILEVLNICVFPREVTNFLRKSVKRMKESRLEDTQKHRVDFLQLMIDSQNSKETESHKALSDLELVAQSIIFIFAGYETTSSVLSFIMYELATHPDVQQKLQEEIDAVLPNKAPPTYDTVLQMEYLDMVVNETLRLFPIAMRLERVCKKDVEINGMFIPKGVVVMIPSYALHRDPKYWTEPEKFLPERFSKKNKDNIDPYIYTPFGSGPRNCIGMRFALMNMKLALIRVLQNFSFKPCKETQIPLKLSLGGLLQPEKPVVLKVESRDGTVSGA", "experiment": "Reversible competitive inhibition of human CYP3A4-mediated 1'-OH midazolam formation in human liver microsomes after 7.5 mins by nonlinear regression study", "type": "ADME"}, "Cytochrome P450 3A5 [6]": {"molecular_target": "T1, Cytochrome P450 3A5", "experiment": "Inhibition of human CYP3A5 expressed in supersomes assessed inhibition of 1'-OH midazolam formation by LC-MS method", "type": "ADME"}, "CYP3A4 [7]": {"molecular_target": "T4, CYP3A4 (Homo sapiens, UniProt P08684)", "T4 sequence (P08684 whole entry)": "as above", "experiment": "Inhibition of human CYP3A4 expressed in supersomes assessed inhibition of 1'-OH midazolam formation preincubated with compound for 2.5 to 30 mins followed by addition of 20-fold diluted buffer with 20 uM MDZ by LC-MS method", "type": "ADME", "details": "supersomes expressing human CYP3A4, probe midazolam (20 uM; 1'-OH midazolam formation)"}, "CYP3A5 [8]": {"molecular_target": "T5, CYP3A5 (Homo sapiens, UniProt P20815)", "T5 sequence (P20815 whole entry)": "as the sequence (P20815 whole entry) above", "experiment": "Inhibition of human CYP3A5 expressed in supersomes assessed inhibition of 1'-OH midazolam formation preincubated at 2 uM followed by addition of 20-fold diluted buffer with 20 uM MDZ by LC-MS method in presence of NADPH", "type": "ADME", "details": "supersomes expressing human CYP3A5, probe midazolam (20 uM; 1'-OH midazolam formation)"}, "CYP3A5 [9]": {"molecular_target": "T5, CYP3A5", "experiment": "Ratio of IC50 for human CYP3A5 expressed in supersomes by coincubation study to IC50 for human CYP3A5 expressed in supersomes by preincubation study", "details": "supersomes expressing human CYP3A5, read-out: Ratio IC50"}, "CYP3A [10]": {"molecular_target": "T2, CYP3A", "experiment": "Reversible competitive inhibition of CYP3A-mediated 1'-OH midazolam formation in human liver microsomes after 7.5 mins by nonlinear regression study", "type": "ADME", "details": "probe midazolam (1'-OH midazolam formation)"}, "Cytochrome P450 3A4 [11]": {"molecular_target": "T3, Cytochrome P450 3A4", "experiment": "Inhibition of human CYP3A4 expressed in supersomes assessed inhibition of 1'-OH midazolam formation by LC-MS method", "type": "ADME"}, "Cytochrome P450 3A4 [12]": {"molecular_target": "T3, Cytochrome P450 3A4", "experiment": "Inhibition of human CYP3A4 expressed in supersomes assessed inhibition of 1'-OH midazolam formation preincubated with compound before substrate addition by LC-MS method", "type": "ADME"}, "CYP3A4 [13]": {"molecular_target": "T4, CYP3A4", "experiment": "Ratio of IC50 for human CYP3A4 expressed in supersomes by coincubation study to IC50 for human CYP3A4 expressed in supersomes by preincubation study", "details": "supersomes expressing human CYP3A4, read-out: Ratio IC50"}, "CYP3A [14]": {"molecular_target": "T2, CYP3A", "experiment": "Competitive inhibition of CYP3A in human liver microsomes", "type": "ADME"}, "CYP3A5 [15]": {"molecular_target": "T5, CYP3A5", "experiment": "Inhibition of human CYP3A5 expressed in supersomes assessed inhibition of 1'-OH midazolam formation preincubated with compound for 2.5 to 30 mins followed by addition of 20-fold diluted buffer with 20 uM MDZ by LC-MS method", "type": "ADME", "details": "supersomes expressing human CYP3A5, probe midazolam (20 uM; 1'-OH midazolam formation)"}, "CYP3A4 [16]": {"molecular_target": "T4, CYP3A4", "experiment": "Inhibition of human CYP3A4 expressed in supersomes assessed inhibition of 1'-OH midazolam formation preincubated at 2 uM followed by addition of 20-fold diluted buffer with 20 uM MDZ by LC-MS method in presence of NADPH", "type": "ADME", "details": "supersomes expressing human CYP3A4, probe midazolam (20 uM; 1'-OH midazolam formation)"}, "[17]": {"details": "human, recombinant enzyme, TDE = time-dependent effect"}},
  "data": [
    {"smiles": "C=CC[C@@H]1/C=C(\\C)C[C@H](C)C[C@H](OC)[C@H]2O[C@@](O)(C(=O)C(=O)N3CCCC[C@H]3C(=O)O[C@H](/C(C)=C/[C@@H]3CC[C@@H](O)[C@H](OC)C3)[C@H](C)[C@@H](O)CC1=O)[C@H](C)C[C@@H]2OC", "note": "[TACROLIMUS ANHYDROUS]", "values": [
      {"measurement": "Ki", "setting": "Cytochrome P450 3A5 [1]", "result": 2690, "unit": "nM"},
      {"measurement": "IC50 at 7.5 min", "setting": "CYP3A [2]", "result": 940, "unit": "nM"},
      {"measurement": "IC50", "setting": "Cytochrome P450 3A5 [3]", "result": 140, "unit": "nM"},
      {"measurement": "inhibition (INH)", "setting": "Cytochrome P450 3A5 [3]; [17]", "result": "tde"},
      {"measurement": "IC50", "setting": "CYP3A [4]", "result": 740, "unit": "nM"},
      {"measurement": "Ki", "setting": "Cytochrome P450 3A4 [5]", "result": 2660, "unit": "nM"},
      {"measurement": "IC50", "setting": "Cytochrome P450 3A5 [6]", "result": 630, "unit": "nM"},
      {"measurement": "inhibition (INH)", "setting": "Cytochrome P450 3A5 [6]; [17]", "result": "tde"},
      {"measurement": "kinact", "setting": "CYP3A4 [7]", "result": 0.005, "unit": "s⁻¹"},
      {"measurement": "inhibition at 2 µM", "setting": "CYP3A5 [8]", "result": 52, "unit": "%"},
      {"measurement": "IC50 shift", "setting": "CYP3A5 [9]", "result": 5},
      {"measurement": "Ki at 7.5 min", "setting": "CYP3A [10]", "result": 610, "unit": "nM"},
      {"measurement": "IC50", "setting": "Cytochrome P450 3A4 [11]", "result": 620, "unit": "nM"},
      {"measurement": "inhibition (INH)", "setting": "Cytochrome P450 3A4 [11]; [17]", "result": "tde"},
      {"measurement": "IC50", "setting": "Cytochrome P450 3A4 [12]", "result": 120, "unit": "nM"},
      {"measurement": "inhibition (INH)", "setting": "Cytochrome P450 3A4 [12]; [17]", "result": "tde"},
      {"measurement": "IC50 shift", "setting": "CYP3A4 [13]", "result": 5},
      {"measurement": "Ki", "setting": "CYP3A [14]", "result": 360, "unit": "nM"},
      {"measurement": "kinact", "setting": "CYP3A5 [15]", "result": 0.0035, "unit": "s⁻¹"},
      {"measurement": "inhibition at 2 µM", "setting": "CYP3A4 [16]", "result": 42, "unit": "%"}
    ]}
  ]
}
